Data taken from publication PMC7714073, “Inhibition properties of free and conjugated leupeptin analogues” (FEBS Open Bio, 2020).
Non-standard residues stand in square brackets, D forms with d. Residues, ends and D or L forms follow the SMILES beside them. Ahx = NCCCCCC(=O)O

Columns and labels:
Assay type in all cases: biochemical, porcine
[1] = biological target: T1, trypsin (Sus scrofa, UniProt P00761); experiment: Trypsin inhibition, real-time measurements of initial velocities with BAPA (free inhibitors); settings: apparent Ki, tight-binding (Morrison) fit; 0.1 M NH4HCO3 pH 7.52, 2% (v/v) DMSO, BAPA 1 mM, trypsin 0.25 µM, KM 0.82 mM, read at 410 nm
T1 construct: purchased Sigma-Aldrich; host or cells: porcine pancreas
Protocol: Fig. 4 The ratio vi/v 0 is plotted as a function of the inhibitor peptide Ahx–Phe–Leu–Arg–COOH (A) and Ahx–Leu–Leu–Arg–COOH (B). […] Error bars represent standard deviation.
Kinetic parameters were obtained by measuring initial velocities in the presence of selected concentrations of natural leupeptin (0.14–1.62 µM), oxidized leupeptin (8–127 µM), reduced leupeptin (10–413 µM) and peptides 1 and 2 (8–254 µM). All reactions were performed in 0.1 M NH4HCO3 (pH 7.52) and 2% (v/v) DMSO using concentrations of BAPA and trypsin fixed at 1 mM and 0.25 µM, respectively. The reaction was monitored at 410 nm in a Shimadzu UV‐1601 UV‐Vis spectrophotometer.
(§1) For real‐time and end point measurements, the Ki value was estimated by the graphical method of Dixon and Morrison (Eqn 1). Ki was extracted after fitting the data to Eqns (1,2) using GRAPHPAD PRISM 8 (GraphPad Software, San Diego, CA, USA). A K M of 0.82 mM was used for the calculations.(1) vi/vo=1‐([E]+[I]+Kiapp)‐[E]+[I]+Kiapp^2‐4[E][I]/2[E]
(§2) The form of Kappi varies with the type of inhibitor. For competitive inhibitors, as in the case of leupeptin, the Ki value can be calculated from Eqn (2):(2) Kiapp=Ki1+[S]/KM

[2] = biological target: T1, trypsin; experiment: Trypsin inhibition, end point measurements with BAPA (conjugated peptide); settings: for Efficiency: Ki,free/Ki,app = [I]eff/[I]tot, free Ahx–Phe–Leu–Arg–COOH as reference (1.00); for Ki: end point measurements
Protocol: Fig. 5 vi/v 0 is plotted as a function of the conjugated TiO2–Ahx–Phe–Leu–Arg–COOH (A), ZnO–Ahx–Phe–Leu–Arg–COOH (B) and WorkBeads™‐Ahx‐Phe‐Leu‐Arg‐COOH (C). […] Error bars represent standard deviation.
Kinetic parameters were obtained by mixing substrate, enzyme and conjugate in a plastic Eppendorf tube with varying concentrations of TiO2–peptide 1 0–70 μM, ZnO–peptide 1 0–60 μM and gel beads conjugated to peptide 1 0–60 μM and incubating with end‐over‐end rotation. A total of 150 µL aliquots was withdrawn at five time points for each reaction, and the reaction was stopped in 100 mM acetic acid (pH 3). Absorbance was measured at 410 nm in a UV‐1601 UV‐Vis spectrophotometer (Shimadzu, Columbia, MD, USA).
as §1, §2

[3] = biological target: T1, trypsin; experiment: Gelatin erosion method: inhibition activity of free and conjugated peptide in gelatin layer; settings: for Rate (erosion well formation rate, linear regression): gel experiment; for Plateau (relative asymptotic plateau value, asymptotic area ratio at virtually maximal inhibition): gelatin erosion, relative area increase rate vs inhibitor concentration, fitted in GRAPHPAD PRISM 8
Description: The gelatin erosion method that simulates a surface with a protective cover layer is here used to evaluate the function of the peptide in its different conjugation states where the relative area increase rate is plotted against the increasing inhibitor concentration in Fig. 6. The curves obtained as a function of concentration for the free peptide and the TiO2‐conjugated peptide, respectively, are virtually identical. […] This may tentatively be explained by a model where the enzyme molecules, once ‘captured’ by the immobilized peptides, also interact nonspecifically with the ZnO surface, resulting in addition of binding energies and thus also cooperative binding. As has been noted earlier by us, the well area converges to an asymptotic nonzero value ‘plateau’ at high inhibitor concentration that is virtually identical for the different cases. The limit may actually be set by the size of the droplet applied and initial enzyme diffusion. However, the similar limiting values further confirm that the inhibition modes are identical for free and conjugated inhibitor. […] This is actually in accordance with the pattern observed for the ZnO conjugate. […] For details regarding the gelatin erosion method, see Fig. S3 and Table S2.
The experiments were performed as described earlier. The concentration of the free inhibitor Ahx–Phe–Leu–Arg–COOH was ranging from 5 to 50 μM, for ZnO conjugate 1–15 μM and for TiO2 conjugate 1–25 μM.
Table S2. The rates, given by the linear regression, are given below for the gel experiment for free Ahx-Phe-Leu-Arg-COOH and its conjugated state to TiO2 and ZnO.

[4] = biological target: T1, trypsin; experiment: Kinetic measurements of TiO2-peptide conjugate (Vmax, Km; Fig. S2/Table S1); settings: trypsin with conjugate present, 0.1 M NH4HCO3 pH 7.52, trypsin 0.125 µM, 34 mg conjugate (6.06 nmol peptide/mg TiO2) per reaction
Protocol: Figure S2. Kinetic measurements of TiO2-peptide conjugate.
Table S1. Extracted values from figure S2. Experiment setup: Buffer 0.1 M NH4HCO3 pH 7.52, [Trypsin] (in eppendorf) = 0.125 µM, 34 mg TiO2-Ahx-Phe-Leu-COOH
(6.06 nmol mod. peptide/mg TiO2) in each reaction.

[5] = apparent Ki of conjugated peptide, five time points, stopped in 100 mM acetic acid pH 3, 410 nm, trypsin 0.25 μM, BAPA 1 mM, Km 0.82 mM, read-out: Ki
[6] = apparent Ki of the stored conjugate, storage time not given (conjugates stored at 4 °C), read-out: Ki stored

T1 sequence (P00761 9-231): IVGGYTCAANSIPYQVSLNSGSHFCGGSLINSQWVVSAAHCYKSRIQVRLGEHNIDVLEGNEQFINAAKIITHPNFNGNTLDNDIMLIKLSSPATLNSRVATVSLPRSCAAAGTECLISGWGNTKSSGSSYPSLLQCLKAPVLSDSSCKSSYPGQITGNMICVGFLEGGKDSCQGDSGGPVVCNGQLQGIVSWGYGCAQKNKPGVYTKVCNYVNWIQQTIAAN

| Ki [1] | Efficiency [2] | Ki [2, 5] | Ki [2, 6] | Molecule | other results |
| --- | --- | --- | --- | --- | --- |
| 2.7 ± 0.1 µM |  |  |  | CC(=O)N[C@@H](CC(C)C)C(=O)N[C@@H](CC(C)C)C(=O)N[C@@H](CCCNC(=N)N)C(=O)O [oxidized leupeptin] |  |
| 0.088 ± 0.008 µM |  |  |  | CC(=O)N[C@@H](CC(C)C)C(=O)N[C@@H](CC(C)C)C(=O)N[C@H](C=O)CCCNC(=N)N [Leupeptin, Ac–Leu–Leu–Arg–CHO] |  |
|  | 0.77 | 4.4 ± 1.3 µM | 7.6 ± 1.5 µM | ZnO–Ahx–Phe–Leu–Arg–COOH | Rate (erosion well formation rate, linear regression) ([3]; 1 μM inhibitor): 3.1 ± 0.5 mm^2/ μMtrypsin; Rate (erosion well formation rate, linear regression) ([3]; 5 μM inhibitor): 2.3 ± 0.50 mm^2/ μMtrypsin; Rate (erosion well formation rate, linear regression) ([3]; 10 μM inhibitor): 2.2 ± 0.4 mm^2/ μMtrypsin; Rate (erosion well formation rate, linear regression) ([3]; 15 μM inhibitor): 2.0 ± 0.5 mm^2/ μMtrypsin; Plateau (relative asymptotic plateau value, asymptotic area ratio at virtually maximal inhibition) [3]: 0.46 ± 0.02 |
| 270 ± 100 µM |  |  |  | CC(=O)N[C@@H](CC(C)C)C(=O)N[C@@H](CC(C)C)C(=O)N[C@H](CO)CCCNC(=N)N [reduced leupeptin] |  |
|  | 0.32 | 11 ± 2 µM | 7.1 ± 1.1 µM | TiO2–Ahx–Phe–Leu–Arg–COOH | Km ([4]; no inhibitor: 2.9 ± 0.8): 6.4 ± 1.2 mM; Vmax ([4]; no inhibitor: 720 ± 100): 250 ± 30; Rate (erosion well formation rate, linear regression) ([3]; 1 μM inhibitor): 4.0 ± 0.4 mm^2/ μMtrypsin; Rate (erosion well formation rate, linear regression) ([3]; 5 μM inhibitor): 3.5± 0.4 mm^2/ μMtrypsin; Rate (erosion well formation rate, linear regression) ([3]; 10 μM inhibitor): 3.6 ± 0.1 mm^2/ μMtrypsin; Rate (erosion well formation rate, linear regression) ([3]; 15 μM inhibitor): 2.00 ± 0.1 mm^2/ μMtrypsin; Rate (erosion well formation rate, linear regression) ([3]; 25 μM inhibitor): 2.2 ± 0.3 mm^2/ μMtrypsin; Plateau (relative asymptotic plateau value, asymptotic area ratio at virtually maximal inhibition) [3]: 0.42 ± 0.21 |

Second part, the molecule before the results:

| Molecule | Ki [1] | Efficiency [2] | Ki [2, 5] | Ki [2, 6] | other results |
| --- | --- | --- | --- | --- | --- |
| CC(C)C[C@H](NC(=O)[C@H](Cc1ccccc1)NC(=O)CCCCCN)C(=O)N[C@@H](CCCNC(=N)N)C(=O)O [Ahx–Phe–Leu–Arg–COOH, 6‐aminohexanoic acid (Ahx)–Phe–Leu–Arg–COOH] (H-[Ahx]FLR-OH) | 3.4 ± 0.2 µM |  |  |  |  |
| WorkBeads™‐Ahx‐Phe‐Leu‐Arg‐COOH [Ahx–Phe–Leu–Arg–COOH coupled to WorkBeads™ 40/1000 ACT agarose gel beads, 150 nmol·mL^−1 beads] |  | 0.12 | 29 ± 4 µM | 53 ± 9 µM | fraction of the conjugated peptides available for the enzyme ([2]; according to the efficiency, peptide conjugated to agarose gel beads): about 10% |
| CC(C)C[C@H](NC(=O)CCCCCN)C(=O)N[C@@H](CC(C)C)C(=O)N[C@@H](CCCNC(=N)N)C(=O)O [Ahx–Leu–Leu–Arg–COOH] (H-[Ahx]LLR-OH) | 9.5 ± 1 µM |  |  |  |  |
